The structures appear in SMILES notation.

From patent publication US20260306377A1, “ANTIMICROBIAL COMPOSITIONS CONTAINING A CATIONIC ANTIMICROBIAL AND AN ACIDIC GLYCOLOPID” (LANXESS CORPORATION, priority 2023, published 2026) come the findings set out here.

This assay relates to mixed bacterial inoculum and mixed fungal inoculum. In words: challenge test, overall result (bacteria and fungi). Format: cell-based. The conditions noted are these: anionic xanthan gum lotion dosed with the substance(s). The method, then:
Preservative activity in representative formulations was evaluated by using a modification of the Personal Care Products Council (PCPC) protocol (Machtiger, et al. 2001. Determination of the Efficacy of Preservation of Non-Eye Area Water Miscible Cosmetic and Toiletry Formulations: Collaborative Study. J of AOAC International. 84:1, 101-109). The evaluation was conducted using a four week, two-cycle microbial preservative efficacy test (challenge test) at 25° C. to determine the preservative efficacy of each treatment.
Xanthan gum is commonly used as a natural rheological modifier in personal care products. The formulation below was made by heating the aqueous (A) and oil (B) phases separately to 75-80° C. The oil phase was then poured into the aqueous phase and mixed by an overhead mixer and a homogenizer. The oil-in-water emulsion was cooled to room temperature. Sodium hydroxide solution was used to adjust the pH.
Lotion formulation samples were dosed with certain test materials as shown further below and mixed thoroughly at room temperature, and the formulation samples were divided into two separate aliquots of 5 gram each. One aliquot was inoculated with 50 μl of a diluted bacterial pool, the second aliquot was inoculated with 50 μl of a diluted fungal pool as described below. Unpreserved product samples were included in the test as a growth control.
A mixed bacterial inoculum was prepared using 24-hour cultures of the test bacteria (Table 2) grown in trypticase soy broth (TSB). Equal volumes of the bacterial test strains were combined and diluted one to ten in phosphate buffer to obtain an inoculum of approximately 5×10^7 to 5×10^8 colony forming units per ml (cfu/ml). The test samples were inoculated with 1% of the mixed bacterial inoculum. A mixed fungal inoculum was prepared using cell suspensions of the yeast Candida albicans ATCC #10231 and the mold Aspergillus brasiliensis ATCC #16404 in phosphate buffer. Equal volumes of the fungal test strains were combined and diluted one to ten with phosphate buffer to obtain an inoculum of approximately 5×10^6 to 5×10^7 cfu/ml. The test samples were inoculated with […] of the mixed fungal inoculum.
The samples were subjected to microbial challenge at time zero and inoculated a second time after seven days. The number of microorganisms added to each sample was determined by a standard Most Probable Number (MPN) determination in Trypticase Soy Broth (TSB) for bacteria and Potato Dextrose Broth (PDB) for fungi. Samples were incubated at 25° C. for the test duration of four weeks. Samples were monitored for bacterial and fungal contamination after 2, 7, 14, 21, and 28 days. Samples challenged with bacteria were streak-plated onto Trypticase Soy Agar (TSA) and incubated at 30° C. for 24 hours. Samples challenged with fungi were streak-plated onto Potato Dextrose Agar (PDA) and incubated at 25° C. for 7 days. After incubation, plates were given a Growth Rating to determine the colony forming units per gram (CFU/g) present in each test sample at the testing time point. As is used by various challenge test methods, the passing criteria is more stringent for bacteria than for fungi. […]
For bacteria challenge testing, a composition was scored as “Pass” if the composition obtained a growth rating score caused by bacteria of 1 or less at days 21-28 of the testing period and was scored as “Fail” if the composition obtained a growth rating score caused by bacteria of 2 or more at days 21-28 of the testing period. […]
In the case of `CC(=O)c1ccc(O)cc1` [HAP, 4-Hydroxyacetophenone], the “challenge test outcome (in words)” value is given as “none of the lotion formulations passed the challenge test”.

Regarding `CCCCCCCCCCCC(=O)N[C@@H](CCCN=C(N)N)C(=O)OCC.Cl` [LAE, Ethyl lauroyl arginate HCl], the “challenge test outcome (in words)” value is recorded as “none of the lotion formulations passed the challenge test”.

As to `O=C(O)c1ccccc1` [NaBz, Sodium benzoate], the “challenge test outcome (in words)” value is “none of the lotion formulations passed the challenge test”.

As to `CCCCCCCC(=O)OCC(O)CO` (centres unmarked) [GC, Glyceryl caprylate], the “challenge test outcome (in words)” value is “none of the lotion formulations passed the challenge test”.

On to `N=C(NCCCCCCNC(=N)NC(=N)Nc1ccc(Cl)cc1)NC(=N)Nc1ccc(Cl)cc1.O=C(O)[C@H](O)[C@@H](O)[C@H](O)[C@H](O)CO.O=C(O)[C@H](O)[C@@H](O)[C@H](O)[C@H](O)CO` [CHD.G, Chlorhexidine digluconate], for which the “challenge test outcome (in words)” value is reported as “none of the lotion formulations passed the challenge test”.
